According to patent US20170202218A1, “Materials for Disinfection Produced by Non-Thermal Plasma” (DREXEL UNIVERSITY, priority 2010, published 2017):

Assays:
E. coli = details: dispersed for 15 sec, no corona discharge applied
Description: An agar place of bacterial (containing colonies of 10^5 E. coli) was placed on top of a grounded metal plate.

E coli = details: in solution, after only 30 seconds; cited from earlier work

| SMILES | disinfection of E. coli on agar plate (E. coli) | log reduction in E coli (E coli) [log] |
| --- | --- | --- |
| CCO [alcohol, ethanol] | some spotty effects | – |
| [H]/N=C(\N/C(=N/[H])NCCCCCCNC(=N)NC(=N)Nc1ccc(Cl)cc1)Nc1ccc(Cl)cc1 [chlorhexidine] | – | 3.5 |
